According to the SangsterLogP compilation:

SMILES | logP
CONC(=O)[C@@H](C(C)C)N(Cc1cccnc1)S(=O)(=O)c1ccccc1Cl | 2.01
CONC(=O)[C@@H](C(C)C)N(Cc1cccnc1)S(=O)(=O)c1ccccc1Br | 3.34
CONC(=O)[C@@H](C(C)C)N(Cc1cccnc1)S(=O)(=O)c1ccccc1F | 2.67
CONC(=O)[C@@H](C(C)C)N(Cc1cccnc1)S(=O)(=O)c1ccc(Br)cc1 | 2.51
CONC(=O)[C@@H](C(C)C)N(Cc1cccnc1)S(=O)(=O)c1ccc(Cl)cc1 | 2.4
CC(C)[C@H](C(=O)NO)N(Cc1cccnc1)S(=O)(=O)c1cccc(Br)c1 | 1.92
CC(C)[C@H](C(=O)NO)N(Cc1cccnc1)S(=O)(=O)c1cccc(Cl)c1 | 1.82
CC(C)[C@H](C(=O)NO)N(Cc1cccnc1)S(=O)(=O)c1ccc(Cl)cc1 | 1.81
CC(C)[C@H](C(=O)NO)N(Cc1cccnc1)S(=O)(=O)c1ccccc1F | 1.65
CONC(=O)C(C(C)C)N(Cc1cccnc1)S(=O)(=O)c1ccc(I)cc1 (configuration not stated) | 3.11
CC(C)[C@H](C(=O)NO)N(Cc1cccnc1)S(=O)(=O)c1ccccc1Cl | 1.45
CONC(=O)[C@@H](C(C)C)N(Cc1cccnc1)S(=O)(=O)c1cccc(Cl)c1 | 2.38
CC(C)[C@H](C(=O)NO)N(Cc1cccnc1)S(=O)(=O)c1ccc(F)cc1 | 1.4
CONC(=O)[C@@H](C(C)C)N(Cc1cccnc1)S(=O)(=O)c1ccc(F)cc1 | 2
CC(C)C(C(=O)NO)N(Cc1cccnc1)S(=O)(=O)c1ccc(Br)cc1 (configuration not stated) | 1.91
CC(C)[C@H](C(=O)NO)N(Cc1cccnc1)S(=O)(=O)c1ccc(I)cc1 | 2.45
CC(C)C(C(=O)NO)N(Cc1cccnc1)S(=O)(=O)c1ccccc1Br (configuration not stated) | 1.54
